# Experimental data reported in US20250388542A1, “ANALOGUES OF PENTAMIDINE AND USES THEREFOR” (Auransa Inc., priority 2018, published 2025).
# “And” between values parts separate entries of the source, which are not always exact repeats. Equal entries are not always repeated. “Also recorded” adds a separate entry of the source.
# What was measured:
# [1] = tested on: COLO 205-Luc colon cancer tumor cells; settings: mouse, in vivo
# Procedure: (§1) Approximately 2.0× Luciferase stably expressing colon cancer tumor cells (COLO 205-Luc) cells suspended in 30 μl of DPBS were injected into cecum wall of BALB/c nude mice.
# (§2) The animals were assigned into groups using an Excel-based randomization software performing stratified randomization based upon their bioluminescence intensity. Treatment was initiated according to the predetermined regimen as shown in the experimental design table.
# (§3) Mice were administered compound 1 at 10 mg/k daily, 20 mg/kg daily, 10 mg/kg twice daily, 20 mg/kg twice daily, or 40 mg/kg daily.
# (§4) The major efficacy endpoint was bioluminescence (intensity values and change from baseline). The surgically inoculated mice were weighed and intraperitoneally administered luciferin at a dose of 150 mg/kg. Ten minutes after the luciferin injection, the animals were pre-anesthetized with the mixture gas of oxygen and isoflurane. When the animals were in a complete anesthetic state, the mice were moved into the imaging chamber for bioluminescence measurements with an IVIS (Lumina II) imaging system. The bioluminescence of the whole animal body, including primary and metastatic tumors, was measured and recorded once per week.
# (§5) Tumor Growth Inhibition (TGI) was calculated for each group using the formula: TGI (%)=[1−(Ti−T0)/(Vi−V0)]×100; Ti is the average tumor bioluminescence value of a treatment group on a given day, T0 is the average tumor bioluminescence value of the treatment group on day 0, Vi is the average tumor bioluminescence value of the vehicle control group on the same day with Ti, and V0 is the average tumor bioluminescence value of the vehicle group on day 0.
# (§6) For comparison among three or more groups, a one-way ANOVA was performed. When a non-significant F-statistics (a ratio of treatment variance to the error variance) was obtained, comparisons between groups were carried out with Dunnett t(2-sided). All data were analyzed using SPSS 17.0. p<0.05 is considered to be statistically significant.
# [2] = tested on: COLO 205-Luc colon cancer tumor cells; assay: Colon orthotopic in vivo study; settings: for Body weight (mean ± SEM): in g (unit assumed)
# Procedure: as §1, §2, §3, §4, §5, §6
# Human microsomal CL rate = type: in vitro ADME; settings: human microsomes
# [3] = tested on: Hep3B2.1-7-Luc liver orthotopic model; assay: Liver orthotopic in vivo analysis; settings: for mean Total Flux: Q3D for a week then QD three weeks, day 28 post grouping; for Whole liver (with tumor) weights: individual animals 1-8; for Tumor sizes vs vehicle: nonparametric ANOVA followed by Kruskal-Wallis test; for Tumor sizes (signal intensity) vs vehicle: two-way ANOVA and Bonferroni post-test
# Procedure: In this study, the in vivo therapeutic effect of Compound 1 on liver cancer was evaluated in an orthotopic mouse model using Hep3B2.1-7-Luc cell line. Three groups of orthotopic model in BALB/c nude mice were treated with vehicle, Compound 1 at 10 mg/kg, and Compound 1 at 20 mg/kg orally (p.o.) Q3D for a week followed by QD for three weeks. The mean Total Flux (photons/s/10^6) of the mice in vehicle control group reached 1223.01 photons/s/10^6 at day 28 post grouping. The mean Total Flux (photons/s/10^6) was 464.74 and 306.74 for Compound 1 (10 mg/kg) group and Compound 1 (20 mg/kg) group at day 28 post grouping.
# A One-way ANOVA combined with Dunnett post-test was performed to compare the results of serum-derived blood chemistries (including ALT, AST, ALP, TP, ALB, UA, UREA, Glu, TC, TG, Ca, Mg, P, CK, LDH, GLB, A/G and CREA) among vehicle and treatment groups. A nonparametric ANOVA followed by Kruskal-Wallis test was performed to compare serum-derived blood chemistries (including ALT, AST and ALP) among vehicle and treatment groups.
# [4] = Tolerance in non-tumor bearing BALB/c nude mice; type: in vivo
# Procedure: The objective of this research is to assess Compound 1 tolerance in non-tumor bearing mice in BALB/c nude mice. Compound 1 exposure in plasma, liver, kidney, colon and bladder as well as serum-derived blood chemistries were tested.
# Thirty-six (36) female BALB/c nude mice of age 6-8 weeks having body weight of around 19-23 g were kept in individual ventilation cages at constant temperature (20˜26° C.) and humidity (40-70%) with 3 animals per cage. Animals had free access to irradiation sterilized dry granule food and sterile drinking water during the entire study period.
# After grouping, the animals were checked daily for morbidity and mortality. At the time of routine monitoring, the animals were measured for any effects on behavior such as mobility, food and water consumption, body weight gain/loss. Body weights were measured daily. Death and other clinical signs were recorded.
# Animals from each group were tested and samples collected at two different time points for blood chemistry tests as well as compound concentration in plasma, kidney, liver, colon and bladder. The first sampling was performed right before the last dose (0 h) on Day 21; and the second sampling was performed 1 hour after the last dose (1 h) on day 21. Detailed descriptions for sampling methods are as follows: […]
# [5] = 10 mg/kg, BID, day 0 after the start of treatment
# [6] = 10 mg/kg, QD, day 0 after the start of treatment
# [7] = 20 mg/kg, BID, day 0 after the start of treatment
# [8] = 20 mg/kg, QD, day 0 after the start of treatment
# [9] = 40 mg/kg, QD, day 0 after the start of treatment
smiles,measurement,setting,value
"N=C(N)c1ccc(OCCCCCOc2ccc(C(=N)N)nc2)cc1 [Compound 1, 5-(5-(4-carbamimidoylphenoxy)pentyloxy)picolinimidamide]",deaths and morbidity,[1],no deaths and no morbidity
same,Relative bioluminescence (mean ± SEM),[2]; [5],100 ± 0%
same,Body weight (mean ± SEM),[2]; [5],21.0 ± 0.4
same,Body weight (mean ± SEM),"[2]; 10 mg/kg, BID, day 3",21.2 ± 0.4
same,Relative bioluminescence (mean ± SEM),"[2]; 10 mg/kg, BID, day 7",447 ± 103%
same,Body weight (mean ± SEM),"[2]; 10 mg/kg, BID, day 7",21.2 ± 0.4
same,Body weight (mean ± SEM),"[2]; 10 mg/kg, BID, day 10",21.2 ± 0.3
same,Relative bioluminescence (mean ± SEM),"[2]; 10 mg/kg, BID, day 14",1033 ± 385%
same,Body weight (mean ± SEM),"[2]; 10 mg/kg, BID, day 14",21.8 ± 0.4
same,Body weight (mean ± SEM),"[2]; 10 mg/kg, BID, day 17",22.1 ± 0.4
same,Relative bioluminescence (mean ± SEM),"[2]; 10 mg/kg, BID, day 22",2993 ± 1325%
same,Body weight (mean ± SEM),"[2]; 10 mg/kg, BID, day 22",21.2 ± 0.4
same,Body weight (mean ± SEM),"[2]; 10 mg/kg, BID, day 24",21.5 ± 0.3
same,Relative bioluminescence (mean ± SEM),"[2]; 10 mg/kg, BID, day 28",2715 ± 950%
same,Body weight (mean ± SEM),"[2]; 10 mg/kg, BID, day 28",22.0 ± 0.3
same,Relative bioluminescence (mean ± SEM),[2]; [6],100 ± 0%
same,Body weight (mean ± SEM),[2]; [6],20.9 ± 0.5
same,Body weight (mean ± SEM),"[2]; 10 mg/kg, QD, day 3",21.4 ± 0.5
same,Relative bioluminescence (mean ± SEM),"[2]; 10 mg/kg, QD, day 7",351 ± 88%
same,Body weight (mean ± SEM),"[2]; 10 mg/kg, QD, day 7",21.6 ± 0.5
same,Body weight (mean ± SEM),"[2]; 10 mg/kg, QD, day 10",21.5 ± 0.4
same,Relative bioluminescence (mean ± SEM),"[2]; 10 mg/kg, QD, day 14",1425 ± 930%
same,Body weight (mean ± SEM),"[2]; 10 mg/kg, QD, day 14",21.7 ± 0.4
same,Body weight (mean ± SEM),"[2]; 10 mg/kg, QD, day 17",21.7 ± 0.4
same,Relative bioluminescence (mean ± SEM),"[2]; 10 mg/kg, QD, day 22",2819 ± 1388%
same,Body weight (mean ± SEM),"[2]; 10 mg/kg, QD, day 22",21.7 ± 0.5
same,Body weight (mean ± SEM),"[2]; 10 mg/kg, QD, day 24",22.2 ± 0.6
same,Relative bioluminescence (mean ± SEM),"[2]; 10 mg/kg, QD, day 28",3171 ± 1602%
same,Body weight (mean ± SEM),"[2]; 10 mg/kg, QD, day 28",22.6 ± 0.5
same,reducing tumor growth,[2]; 20 mg/kg or 40 mg/kg daily,non-statistically significant trend
same,Relative bioluminescence (mean ± SEM),[2]; [7],100 ± 0%
same,Body weight (mean ± SEM),[2]; [7],20.9 ± 0.5
same,Body weight (mean ± SEM),"[2]; 20 mg/kg, BID, day 3",20.9 ± 0.5
same,Relative bioluminescence (mean ± SEM),"[2]; 20 mg/kg, BID, day 7",299 ± 91%
same,Body weight (mean ± SEM),"[2]; 20 mg/kg, BID, day 7",21.1 ± 0.5
same,Body weight (mean ± SEM),"[2]; 20 mg/kg, BID, day 10",21.1 ± 0.5
same,Relative bioluminescence (mean ± SEM),"[2]; 20 mg/kg, BID, day 14",1108 ± 433%
same,Body weight (mean ± SEM),"[2]; 20 mg/kg, BID, day 14",21.5 ± 0.6
same,Body weight (mean ± SEM),"[2]; 20 mg/kg, BID, day 17",21.6 ± 0.6
same,Relative bioluminescence (mean ± SEM),"[2]; 20 mg/kg, BID, day 22",2340 ± 1230%
same,Body weight (mean ± SEM),"[2]; 20 mg/kg, BID, day 22",20.9 ± 0.5
same,Body weight (mean ± SEM),"[2]; 20 mg/kg, BID, day 24",21.3 ± 0.5
same,Relative bioluminescence (mean ± SEM),"[2]; 20 mg/kg, BID, day 28",1877 ± 1076%
same,Body weight (mean ± SEM),"[2]; 20 mg/kg, BID, day 28",21.7 ± 0.5
same,Relative bioluminescence (mean ± SEM),[2]; [8],100 ± 0%
same,Body weight (mean ± SEM),[2]; [8],20.8 ± 0.4
same,Body weight (mean ± SEM),"[2]; 20 mg/kg, QD, day 3",20.8 ± 0.3
same,Relative bioluminescence (mean ± SEM),"[2]; 20 mg/kg, QD, day 7",171 ± 46%
same,Body weight (mean ± SEM),"[2]; 20 mg/kg, QD, day 7",20.8 ± 0.4
same,Body weight (mean ± SEM),"[2]; 20 mg/kg, QD, day 10",21.0 ± 0.3
same,Relative bioluminescence (mean ± SEM),"[2]; 20 mg/kg, QD, day 14",817 ± 269%
same,Body weight (mean ± SEM),"[2]; 20 mg/kg, QD, day 14",21.2 ± 0.3
same,Body weight (mean ± SEM),"[2]; 20 mg/kg, QD, day 17",21.3 ± 0.4
same,Relative bioluminescence (mean ± SEM),"[2]; 20 mg/kg, QD, day 22",923 ± 354%
same,Body weight (mean ± SEM),"[2]; 20 mg/kg, QD, day 22",21.1 ± 0.4
same,Body weight (mean ± SEM),"[2]; 20 mg/kg, QD, day 24",21.6 ± 0.3
same,Relative bioluminescence (mean ± SEM),"[2]; 20 mg/kg, QD, day 28",1613 ± 1022%
same,Body weight (mean ± SEM),"[2]; 20 mg/kg, QD, day 28",21.5 ± 0.4
same,Relative bioluminescence (mean ± SEM),[2]; [9],100 ± 0%
same,Body weight (mean ± SEM),[2]; [9],20.7 ± 0.5
same,Body weight (mean ± SEM),"[2]; 40 mg/kg, QD, day 3",20.7 ± 0.5
same,Relative bioluminescence (mean ± SEM),"[2]; 40 mg/kg, QD, day 7",210 ± 57%
same,Body weight (mean ± SEM),"[2]; 40 mg/kg, QD, day 7",20.2 ± 0.4
same,Body weight (mean ± SEM),"[2]; 40 mg/kg, QD, day 10",20.3 ± 0.5
same,Relative bioluminescence (mean ± SEM),"[2]; 40 mg/kg, QD, day 14",357 ± 109%
same,Body weight (mean ± SEM),"[2]; 40 mg/kg, QD, day 14",20.5 ± 0.5
same,Body weight (mean ± SEM),"[2]; 40 mg/kg, QD, day 17",20.5 ± 0.5
same,Relative bioluminescence (mean ± SEM),"[2]; 40 mg/kg, QD, day 22",525 ± 145%
same,Body weight (mean ± SEM),"[2]; 40 mg/kg, QD, day 22",20.4 ± 0.5
same,Body weight (mean ± SEM),"[2]; 40 mg/kg, QD, day 24",21.0 ± 0.5
same,Relative bioluminescence (mean ± SEM),"[2]; 40 mg/kg, QD, day 28",512 ± 206%
same,Body weight (mean ± SEM),"[2]; 40 mg/kg, QD, day 28",21.3 ± 0.5
same,body weight loss as indirect measure of toxicity,"[2]; all dose groups 10-40 mg/kg QD, 10-20 mg/kg BID",No groups lost weight obviously
same,toxicity / tolerability,"[2]; tumor-bearing BALB/c nude mice, all dose groups",no obvious toxicity; also recorded: does not have significant toxicity and is well tolerated
same,microsomal CLint,Human microsomal CL rate,13.6 µL/min/mg
same,"tolerability, body weight loss",[3]; 10 mg/kg and 20 mg/kg p.o.,well tolerated in both 10 mg/kg and 20 mg/kg groups with no obvious body weight loss; also recorded: well tolerated at both doses level tested
same,anti-tumor effect compared to vehicle group (Total Flux),[3]; 10 mg/kg p.o.,significant anti-tumor effect at day 8 to day 18 and day 28
same,mean Total Flux,[3]; 10 mg/kg p.o.,464.74 photons/s/10^6
same,Whole liver (with tumor) weights,[3]; 10 mg/kg,1.334 g and 2.415 g and 2.602 g and 2.280 g and 3.035 g and 1.817 g and 2.019 g and 2.311 g
same,Tumor sizes vs vehicle,[3]; 10 mg/kg,no significant difference during the treatment days
same,Tumor sizes (signal intensity) vs vehicle,[3]; 10 mg/kg,significant difference at day 25 and extremely significant difference at day 28
same,anti-tumor effect compared to vehicle group (Total Flux),[3]; 20 mg/kg p.o.,significant anti-tumor effect at day 8 to day 28
same,mean Total Flux,[3]; 20 mg/kg p.o.,306.74 photons/s/10^6
same,in vivo anti-tumor activity (summary),"[3]; 20 mg/kg, day 25 and day 28",significant in vivo anti-tumor activity
same,Whole liver (with tumor) weights,[3]; 20 mg/kg,1.681 g and 2.243 g and 1.645 g and 2.012 g and 1.926 g and 1.610 g and 1.603 g and 2.260 g
same,Tumor sizes vs vehicle,[3]; 20 mg/kg,significant difference at day 28 and extremely significant difference at day 25
same,Tumor sizes (signal intensity) vs vehicle,[3]; 20 mg/kg,extremely significant difference at day 22 to day 28
same,levels of liver injury/damage markers ALT and AST,"[3]; serum, 10 mg/kg and 20 mg/kg","significant reduction in levels of liver injury/damage markers, i.e., ALT and AST, in a dose dependent manner"
same,"tolerability, body weight loss","[4]; 5 mg/kg QD, 10 mg/kg QD, 10 mg/kg Q2D and 20 mg/kg QD, PO, 21 days",well tolerated with no obvious body weight loss
same,body weights compared with vehicle control group,"[4]; 40 mg/kg QD PO, day 20 and 21",lower in a statistically significant manner at day 20 and 21
